Source: US5773421A, “Antifungal fusacandins” (Abbott Laboratories, priority 1995, dated 1998)
Values after ≈ are worked out from the molar mass of the structure shown. Where two headings read alike, the source gives them in different places.

Experiments:
Test in all cases: MIC by agar dilution method
Assay type in all cases: cell-based
Candida albicans 579a = conditions: read-out: MIC II
Method: (§1) Minimal inhibitory concentrations (MICs) were determined by an agar dilution method. The test compounds were serially diluted in MeOH and 0.2 mL portions were mixed with 20 mL of molten, cooled Sabouraud dextrose agar (Difco). Yeast cell inoculum was prepared by growing cultures on Sabouraud dextrose agar for 18 hours at 32° C. and suspending the cells in phosphate buffered saline. Filamentous fungi were grown under the same conditions for 4 days to obtain spores. The inoculum level for all cultures was adjusted to 10^4 cells using a Petroff-Hauser cell counter. The glutarimide antifungal compounds cycloheximide or amphotericin B were used as a control. Inoculated test plates were incubated at 32° C. and examined after 20 hours.

[1] = tested on: Candida albicans ATCC 10231
Method: as §1

[2] = tested on: Candida albicans ATCC 38247
Method: as §1

[3] = tested on: Candida albicans ATCC 62376
Method: as §1

Candida albicans CCH 442 = conditions: CCH442; Table 6c, 3rd value column (head printed II); III Candida albicans CCH 442; agar dilution; read-out: MIC II
Method: as §1

[4] = Candida albicans, ATCC10231, read-out: MIC I
[5] = Candida albicans, ATCC38247, read-out: MIC IV
[6] = Candida albicans, ATCC62376, read-out: MIC V
[7] = Table 6c, II Candida albicans 579a, agar dilution
[8] = ATCC10231, Table 6c, I Candida albicans ATCC 10231, agar dilution, read-out: MIC I
[9] = ATCC38247, Table 6c, IV Candida albicans ATCC 38247, agar dilution, read-out: MIC IV
[10] = ATCC62376, Table 6c, V Candida albicans ATCC 62376, agar dilution, read-out: MIC V

Row | MIC (Candida albicans CCH 442) [µg/mL] | MIC (Candida albicans 579a; [7]) [µg/mL] | MIC [1, 8] [µg/mL] | MIC [2, 9] [µg/mL] | MIC [3, 10] [µg/mL] | Structure (SMILES) | MIC (Candida albicans 579a; Candida albicans, 579A) [µg/mL] | MIC [1, 4] [µg/mL] | MIC [2, 5] [µg/mL] | MIC [3, 6] [µg/mL]
1 | 1.56 (≈ 1.44 µM) | 0.78 (≈ 0.72 µM) | 1.56 (≈ 1.44 µM) | 1.56 (≈ 1.44 µM) | 3.12 (≈ 2.88 µM) | CCCCC/C=C/C=C/[C@@H](O)C/C=C/C=C/C(=O)O[C@@H]1[C@@H](O)[C@H](c2c(O)cc(O)cc2CO)O[C@H](CO)[C@H]1O[C@@H]1O[C@H](COC(=O)c2cccc(-c3ccc(OC)cc3)c2)[C@H](O)[C@H](O)[C@H]1O[C@@H]1O[C@H](CO)[C@H](O)[C@H](O)[C@H]1O [Example 39] | – | – | – | –
2 | 25 (≈ 26.5 µM) | 50 (≈ 53 µM) | 50 (≈ 53 µM) | 25 (≈ 26.5 µM) | 50 (≈ 53 µM) | CCCCC/C=C/C=C/[C@@H](O)C/C=C/C=C/C(=O)O[C@@H]1[C@@H](O)[C@H](c2c(O)cc(O)cc2CO)O[C@H](CO)[C@H]1O[C@@H]1O[C@H](COC(=O)CCC)[C@H](O)[C@H](O)[C@H]1O[C@@H]1O[C@H](CO)[C@H](O)[C@H](O)[C@H]1O [Example 12] | – | – | – | –
3 | 3.12 (≈ 2.8 µM) | 3.12 (≈ 2.8 µM) | 6.25 (≈ 5.6 µM) | 3.12 (≈ 2.8 µM) | 6.25 (≈ 5.6 µM) | CCCCC/C=C/C=C/[C@@H](O)C/C=C/C=C/C(=O)O[C@@H]1[C@@H](O)[C@H](c2c(O)cc(O)cc2CO)O[C@H](CO)[C@H]1O[C@@H]1O[C@H](COC(=O)/C=C/c2cc(C(C)(C)C)cc(C(C)(C)C)c2)[C@H](O)[C@H](O)[C@H]1O[C@@H]1O[C@H](CO)[C@H](O)[C@H](O)[C@H]1O [Example 17] | – | – | – | –
4 | 0.78 (≈ 0.702 µM) | 0.78 (≈ 0.702 µM) | 1.56 (≈ 1.4 µM) | 0.78 (≈ 0.702 µM) | 0.78 (≈ 0.702 µM) | CCCCC/C=C/C=C/[C@@H](O)C/C=C/C=C/C(=O)O[C@@H]1[C@@H](O)[C@H](c2c(O)cc(O)cc2CO)O[C@H](CO)[C@H]1O[C@@H]1O[C@H](COC(=O)c2ccc(-c3ccc(OC(C)C)cc3)cc2)[C@H](O)[C@H](O)[C@H]1O[C@@H]1O[C@H](CO)[C@H](O)[C@H](O)[C@H]1O [Example 43] | – | – | – | –
5 | 6.25 (≈ 5.77 µM) | 3.12 (≈ 2.88 µM) | 12.5 (≈ 11.5 µM) | 6.25 (≈ 5.77 µM) | 6.25 (≈ 5.77 µM) | C=CCOc1ccc2cc(C(=O)OC[C@H]3O[C@@H](O[C@H]4[C@H](OC(=O)/C=C/C=C/C[C@H](O)/C=C/C=C/CCCCC)[C@@H](O)[C@H](c5c(O)cc(O)cc5CO)O[C@@H]4CO)[C@H](O[C@@H]4O[C@H](CO)[C@H](O)[C@H](O)[C@H]4O)[C@@H](O)[C@H]3O)ccc2c1 [Example 23] | – | – | – | –
6 | 3.12 (≈ 3.04 µM) | 3.12 (≈ 3.04 µM) | 3.12 (≈ 3.04 µM) | 1.56 (≈ 1.52 µM) | 6.25 (≈ 6.09 µM) | CCCCC/C=C/C=C/[C@@H](O)C/C=C/C=C/C(=O)O[C@@H]1[C@@H](O)[C@H](c2c(O)cc(O)cc2CO)O[C@H](CO)[C@H]1O[C@@H]1O[C@H](COC(=O)c2cccc3ccccc23)[C@H](O)[C@H](O)[C@H]1O[C@@H]1O[C@H](CO)[C@H](O)[C@H](O)[C@H]1O [Example 20] | – | – | – | –
7 | 12.5 (≈ 12.5 µM) | 12.5 (≈ 12.5 µM) | 12.5 (≈ 12.5 µM) | 6.25 (≈ 6.23 µM) | 12.5 (≈ 12.5 µM) | CCCCC/C=C/C=C/[C@@H](O)C/C=C/C=C/C(=O)O[C@@H]1[C@@H](O)[C@H](c2c(O)cc(O)cc2CO)O[C@H](CO)[C@H]1O[C@@H]1O[C@H](COC(=O)/C=C/c2ccccc2)[C@H](O)[C@H](O)[C@H]1O[C@@H]1O[C@H](CO)[C@H](O)[C@H](O)[C@H]1O [Example 16] | – | – | – | –
8 | 1.56 (≈ 1.52 µM) | 0.78 (≈ 0.762 µM) | 1.56 (≈ 1.52 µM) | 1.56 (≈ 1.52 µM) | 3.12 (≈ 3.05 µM) | CCCCC/C=C/C=C/C(=O)OC[C@H]1O[C@@H](O[C@H]2[C@H](OC(=O)/C=C/C=C/C[C@H](O)/C=C/C=C/CCCCC)[C@@H](O)[C@H](c3c(O)cc(O)cc3CO)O[C@@H]2CO)[C@H](O[C@@H]2O[C@H](CO)[C@H](O)[C@H](O)[C@H]2O)[C@@H](O)[C@H]1O [Example 11] | – | – | – | –

Row | Structure (SMILES) | MIC (Candida albicans CCH 442) [µg/mL] | MIC (Candida albicans 579a; [7]) [µg/mL] | MIC [1, 8] [µg/mL] | MIC [2, 9] [µg/mL] | MIC [3, 10] [µg/mL] | MIC (Candida albicans 579a; Candida albicans, 579A) [µg/mL] | MIC [1, 4] [µg/mL] | MIC [2, 5] [µg/mL] | MIC [3, 6] [µg/mL]
9 | CCCCC/C=C/C=C/[C@@H](O)C/C=C/C=C/C(=O)O[C@@H]1[C@@H](O)[C@H](c2c(O)cc(O)cc2CO)O[C@H](CO)[C@H]1O[C@@H]1O[C@H](COC(=O)c2ccc3c(ccc4ccccc43)c2)[C@H](O)[C@H](O)[C@H]1O[C@@H]1O[C@H](CO)[C@H](O)[C@H](O)[C@H]1O [Example 25] | 0.78 (≈ 0.724 µM) | – | – | – | – | 0.78 (≈ 0.724 µM) | 1.56 (≈ 1.45 µM) | 1.56 (≈ 1.45 µM) | 1.56 (≈ 1.45 µM)
10 | CCCCC/C=C/C=C/[C@@H](O)C/C=C/C=C/C(=O)O[C@@H]1[C@@H](O)[C@H](c2c(O)cc(O)cc2CO)O[C@H](CO)[C@H]1O[C@@H]1O[C@H](COC(=O)c2ccc3ccc4ccccc4c3c2)[C@H](O)[C@H](O)[C@H]1O[C@@H]1O[C@H](CO)[C@H](O)[C@H](O)[C@H]1O [Example 26] | 1.56 (≈ 1.45 µM) | – | – | – | – | 0.78 (≈ 0.724 µM) | 0.78 (≈ 0.724 µM) | 1.56 (≈ 1.45 µM) | 0.78 (≈ 0.724 µM)
